From patent publication US11028087B2, “2,6-disubstituted-9-cyclopentyl-9H-purines, use thereof as medicaments, and pharmaceutical compositions” (UNIVERZITA PALACKEHO V OLOMOUCI, priority 2017, dated 2021)

Assays:
[1] = test system: FLT3 phosphorylation in MV4-11 xenograft; assay: MV4-11 xenograft target modulation, pFLT3 immunoblot; format: in vivo, mice
Description: (§1) Female athymic nu/nu mice (8 weeks old) were subcutaneously implanted with 5×10^6 MV4-11 cells in 1:1 mixture with Matrigel (High concentration basement membrane Matrigel, Corning) into the hind flank on day 0. Tumors were allowed to growth to the volume of 500-800 mm^3. Body weight and tumor size were recorded 3 times a week. Mice were randomized to treatment groups, 4 to 5 mice each, for target modulation studies.
(§2) Mice were sacrificed at 2 time points (2 hours and 24 hours) after treatment. Tumors were resected and mechanically disintegrated. Cells were washed twice with PBS (lx), then lysed in ice-cold lysis buffer (10 mM HEPES pH 7.4, 1 mM EDTA, 1 mM EGTA, 5 mM KCl, 1.5 mM MgCl2) supplemented with protease and phosphatase inhibitors (10 mM β-glycerolphosphate; 1 mM NaF; 0.1 mM Na3VO4; 0.1 mM PMSF; 10 μg/ml Leupeptin; 2 μg/ml Aprotinin; 1 mM DTT) and cleared by centrifugation. Samples (50 μg of total protein amount) were separated on SDS-PAGE, followed by transfer of the separated proteins to nitrocellulose membrane.

CDK7Cyclin H/MAT1 = target: T1, CDK7Cyclin H/MAT1 (Homo sapiens, UniProt P50613); assay: Kinase inhibition assay with [γ-33P]ATP; format: biochemical; conditions: (YSPTSPS)2KK peptide, 1.5 μM ATP; read-out: IC50 values (μM) CDK7
T1 construct: purchased ProQinase GmbH

[2] = test system: ERK1/2, STAT5 and STAT3 phosphorylation in EOL-1 cells; assay: Immunoblotting of signaling downstream of PDGFR in EOL-1 cells; format: cell-based; conditions: 1 hour (FIG. 4)
Description: (§3) To confirm kinase-inhibitory activity of novel compounds in cells, MV4-11 cells with FLT3-ITD and EOL-1 cells expressing FIP1L1-PDGFRA fusion protein were analyzed upon 1 hour treatment. Treated cells were harvested by centrifugation and homogenized in an extraction buffer (10 mM HEPES pH 7.4, 1 mM EDTA, 1 mM EGTA, 5 mM KC, 1.5 mM MgCl2, 0.5% NP40, supplemented with 1 mM DTT, 1 mM NaF, 0.1 mM Na3VO4, 1 mM PMSF, 0.5 μg/ml Leupeptin, 2 μg/ml Aprotinin) on ice for […]. The homogenates were clarified by centrifugation at 10,000 g for 30 min at 4° C., proteins were quantified by the Bradford method and then diluted to the same concentration. […] of total proteins were separated by SDS-polyacrylamide gel electrophoresis and transferred onto nitrocellulose membranes. Membranes were blocked in 5% BSA in TBS with 0.1% Tween 20 and probed overnight with specific antibodies for FLT3 (clone 8F2), phospho-FLT3 Y589/591 (30D4), phospho-FLT3 Y591 (33G6), phospho-FLT3 Y842 (10A8), phospho-FLT3 Y969 (C24D9), PDGFRA (D1E1E), phospho-PDGFRA Y849/PDGFRB Y857 (C43E9), phospho-PDGFRA Y1018, p44/42 MAPK (ERK1/2), phospho-p44/42 MAPK (ERK1/2) (Thr202/Tyr204), STAT5, Phospho-STAT5(Tyr694), STAT3 (79D7), phospho-STAT3 (Tyr705) (D3A7), MEK1/2 (D1A5), phospho-MEK1/2 (Ser217/221) purchased from Cell Signaling, USA, α-tubulin (DM1A, Sigma Aldrich, USA) and PCNA (PC-10, gifted by Dr. B. Vojtesek). […]

[3] = test system: FLT3 (FLT3-ITD) in MV4-11 cells; assay: Immunoblotting of FLT3 phosphorylation in MV4-11 cells; format: cell-based; conditions: MV4-11 FLT3-ITD cells, 1 hour treatment, immunoblotting (FIG. 1)
Description: Cells were exposed for 1 hour to the indicated concentrations of 264 or 270 and then levels of phosphorylations at specific tyrosine residues of FLT3 were analyzed.
To confirm kinase-inhibitory activity of novel compounds in cells, MV4-11 cells with FLT3-ITD and EOL-1 cells expressing FIP1L1-PDGFRA fusion protein were analyzed upon 1 hour treatment. Treated cells were harvested by centrifugation and homogenized in an extraction buffer (10 mM HEPES pH 7.4, 1 mM EDTA, 1 mM EGTA, 5 mM KC, 1.5 mM MgCl2, 0.5% NP40, supplemented with 1 mM DTT, 1 mM NaF, 0.1 mM Na3VO4, 1 mM PMSF, 0.5 μg/ml Leupeptin, 2 μg/ml Aprotinin) on ice for […]. The homogenates were clarified by centrifugation at 10,000 g for 30 min at 4° C., proteins were quantified by the Bradford method and then diluted to the same concentration. […] of total proteins were separated by SDS-polyacrylamide gel electrophoresis and transferred onto nitrocellulose membranes. […]

[4] = test system: ERK1/2, STAT5 and STAT3 phosphorylation in MV4-11 cells; assay: Immunoblotting of signaling downstream of FLT3 in MV4-11 cells; format: cell-based; conditions: 1 hour (FIG. 3)
Description: as §3

[5] = test system: STAT5 phosphorylation in MV4-11 xenograft; assay: MV4-11 xenograft target modulation, pSTAT5 immunoblot; format: in vivo, mice; conditions: single dose 10 mg/kg intraperitoneal, after 24 hours
Description: as §1, §2

T1 sequence (P50613 whole entry): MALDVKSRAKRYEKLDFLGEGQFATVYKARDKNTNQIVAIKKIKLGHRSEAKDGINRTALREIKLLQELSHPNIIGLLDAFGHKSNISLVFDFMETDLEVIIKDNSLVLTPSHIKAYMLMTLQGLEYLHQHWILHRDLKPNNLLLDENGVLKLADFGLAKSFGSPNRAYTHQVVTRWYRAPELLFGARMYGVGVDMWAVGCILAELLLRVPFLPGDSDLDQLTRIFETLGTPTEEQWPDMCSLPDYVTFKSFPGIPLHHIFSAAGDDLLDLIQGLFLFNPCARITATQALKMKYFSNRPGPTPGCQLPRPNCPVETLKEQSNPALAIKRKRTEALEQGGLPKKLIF
T1 sequence (P51946 whole entry partner): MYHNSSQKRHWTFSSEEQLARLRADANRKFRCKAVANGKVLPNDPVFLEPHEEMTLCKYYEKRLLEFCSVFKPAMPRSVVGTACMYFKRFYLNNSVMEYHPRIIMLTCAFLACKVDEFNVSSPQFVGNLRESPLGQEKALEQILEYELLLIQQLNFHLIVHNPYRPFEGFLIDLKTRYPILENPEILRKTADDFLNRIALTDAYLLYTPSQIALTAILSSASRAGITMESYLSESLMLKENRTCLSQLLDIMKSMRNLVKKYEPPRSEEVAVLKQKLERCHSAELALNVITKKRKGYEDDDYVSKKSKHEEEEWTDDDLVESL
T1 sequence (P51948 whole entry partner): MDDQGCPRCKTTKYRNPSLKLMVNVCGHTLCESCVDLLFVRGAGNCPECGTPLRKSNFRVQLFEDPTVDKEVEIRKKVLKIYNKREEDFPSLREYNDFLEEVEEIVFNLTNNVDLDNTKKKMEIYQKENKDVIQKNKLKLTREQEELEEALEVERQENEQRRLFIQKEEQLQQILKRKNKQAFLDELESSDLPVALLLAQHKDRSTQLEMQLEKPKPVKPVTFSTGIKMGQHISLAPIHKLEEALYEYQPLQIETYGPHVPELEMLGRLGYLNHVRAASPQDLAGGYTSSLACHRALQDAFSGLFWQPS

Row | SMILES | inhibition of pFLT3 in tumor ([1]; nu/nu mice, single dose 10 mg/kg intraperitoneal, 2 hours after administration) [%] | pFLT3 level in tumor at 24 hours ([1]; single dose 10 mg/kg (264 intraperitoneal, Quizartinib oral gavage), 24 hours) | IC50 (CDK7Cyclin H/MAT1) [µM] | phosphorylation of ERK1/2, STAT5 and STAT3 [2] | phosphorylation of tyrosine residues of FLT3 receptor kinase (including Y589, Y591, Y742) [3] | phosphorylation of ERK1/2, STAT5 and STAT3 [4] | reduction of pSTAT5 level in tumor [5]
1 | NC1CCC(Nc2nc(Nc3ccc(CN4CCOCC4)cc3)c3ncn(C4CCCC4)c3n2)CC1 (centres unmarked) [Compound 264] | 95 | the inhibition sustained 24 hours | 0.178 | reduced phosphorylation | cellular FLT3 dephosphorylation | reduced phosphorylation | more than 95%
2 | NCCCCNc1nc(Nc2ccc(CN3CCOCC3)cc2)c2ncn(C3CCCC3)c2n1 [Compound 270] |  |  |  | reduced phosphorylation | cellular FLT3 dephosphorylation | reduced phosphorylation | 
3 | CN1CC2(C1)CN(c1ccc(Nc3nc(NC4CCC(O)CC4)nc4c3ncn4C3CCCC3)cc1)C2 (centres unmarked) [Compound 7] |  |  | 0.197 |  |  |  | 
